Assay results reported in patent US7273863B1, “Benzophenones as inhibitors of reverse transcriptase” (SmithKline Beecham Corporation, priority 1999, dated 2007).

Experiments:
Format in all cases: cell-based
[1] = tested on: HIV-1 (strain IIIB); test: MT4 cell assay, antiviral HIV activity (propidium iodide); conditions: Human immunodeficiency virus 1, IIIB; Virus Type HIV-1; Assay MT4; read-out: IC50 (nM) Range
Description: Antiviral HIV activity and compound-induced cytotoxicity were measured in parallel by means of a propidium iodide based procedure in the human T-cell lymphotropic virus transformed cell line MT4. Aliquots of the test compounds were serially diluted in medium (RPMI 1640, 10% fetal calf serum (FCS), and gentamycin) in 96-well plates (Costar 3598) using a Cetus Pro/Pette. Exponentially growing MT4 cells were harvested and centrifuged at 1000 rpm for 10 min in a Jouan centrifuge (model CR 4 12). Cell pellets were resuspended in fresh medium (RPMI 1640, 20% FCS, 20% IL-2, and gentamycin) to a density of 5×10^5 cells/ml. Cell aliquots were infected by the addition of HIV-1 (strain IIIB) diluted to give a viral multiplicity of infection of 100×TCID50. A similar cell aliquot was diluted with medium to provide a mock-infected control. Cell infection was allowed to proceed for 1 hr at 37° C. in a tissue culture incubator with humidified 5% CO2 atmosphere. After the 1 hr incubation the virus/cell suspensions were diluted 6-fold with fresh medium, and 125 μl of the cell suspension was added to each well of the plate containing pre-diluted compound. Plates were then placed in a tissue culture incubator with humidified 5% CO2 for 5 days. At the end of the incubation period, 27 μl of 5% Nonidet-40 was added to each well of the incubation plate. After thorough mixing with a Costar multitip pipetter, 60 μl of the mixture was transferred to filter-bottomed 96-well plates. The plates were analyzed in an automated assay instrument (Screen Machine, Idexx Laboratories). The control and standard used was 3′-azido-3′-deoxythymidine tested over a concentration range of 0.01 to 1 μM in every assay. […] The assay-makes use of a propidium iodide dye to estimate the DNA content of each well.
The antiviral effect of a test compound is reported as an IC50, i.e. the inhibitory concentration that would produce a 50% decrease in the HIV-induced cytopathic effect. This effect is measured by the amount of test compound required to restore 50% of the cell growth of HIV-infected MT4 cells, compared to uninfected MT4 cell controls. IC50 was calculated by RoboSage, Automated Curve Fitting Program, version 5.00, 10 Jul. 1995.
For each assay plate, the results (relative fluorescence units, rfU) of wells containing uninfected cells or infected cells with no compound were averaged, respectively. For measurements of compound-induced cytotoxicty, results from wells containing various compound concentrations and uninfected cells were compared to the average of uninfected cells without compound treatment. Percent of cells remaining is determined by the following formula: Percent of cells remaining=(compound−treated uninfected cells, rfU/untreated uninfected cells)×100.
A level of percent of cells remaining of 79% or less indicates a significant level of direct compound-induced cytotoxicity for the compound at that concentration. When this condition occurs the results from the compound-treated infected wells at this concentration are not included in the calculation of IC50.
For measurements of compound antiviral activity, results from wells containing various compound concentrations and infected cells are compared to the average of uninfected and infected cells without compound treatment. Percent inhibition of virus is determined by the following formula: Percent inhibition of virus=(1−((ave. untreated uninfected cells−treated infected cells)/(ave. untreated uninfected cells−ave. untreated infected cells)))×100

[2] = tested on: isogenic HIV-1 RT mutant virus K101E; test: HeLa cell assay (HIV-LTR β-galactosidase reporter); conditions: Human immunodeficiency virus 1, HeLa, read-out: IC50 (nM) Range
How it was run: (§1)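 HeLa-CD4-LTR-β-gal cells, seeded overnight, were infected with isogenic recombinant HXB2 RT-mutant virus (50 to 70 total RLUs per well, DEAE-dextran) for 1.5 to 2 hours. Five-fold compound titrations (2 μM to 1 pM final, 0.1% DMSO) followed, with 72 h at 37° C. IC50 is chemiluminescent β-gal signal inhibition versus untreated controls.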

[3] = tested on: isogenic HIV-1 RT mutant virus V106A; test: HeLa cell assay (HIV-LTR β-galactosidase reporter); conditions: Human immunodeficiency virus 1, HeLa, read-out: IC50 (nM) Range
How it was run: as §1

| Structure (SMILES) | IC50 [1] | IC50 [2] | IC50 [3] |
| --- | --- | --- | --- |
| Cc1cc(S(N)(=O)=O)ccc1NC(=O)COc1ccc(Cl)cc1C(=O)c1cc(F)cc(F)c1 [Compound 62] | < 10 nM | < 10 nM | 11 to 100 nM |
| Cc1cc(S(N)(=O)=O)ccc1NC(=O)COc1ccc(Cl)cc1C(=O)c1cc(F)cc(C(F)(F)F)c1 [Compound 78] | < 10 nM | < 10 nM | 11 to 100 nM |
| Cc1cc2nc[nH]c2cc1NC(=O)COc1ccc(Cl)cc1C(=O)c1cc(F)cc(C(F)(F)F)c1 [Compound 239] | < 10 nM | < 10 nM | 11 to 100 nM |
| Cc1cc(OCCCS(N)(=O)=O)ccc1NC(=O)COc1ccc(Cl)cc1C(=O)c1cc(F)cc(C(F)(F)F)c1 [Compound 257] | < 10 nM | < 10 nM | 11 to 100 nM |
| Cc1cc(S(N)(=O)=O)ccc1NC(=O)COc1ccc(Cl)cc1C(=O)c1cccc(C#N)c1 [Compound 448] | < 10 nM | < 10 nM | 11 to 100 nM |
| Cc1cc2cn[nH]c2cc1NC(=O)COc1ccc(Cl)cc1C(=O)c1cccc(C#N)c1 [Compound 453] | < 10 nM | < 10 nM | 101 to 1000 nM |
| Cc1cc(S(N)(=O)=O)ccc1NC(=O)COc1ccc(Cl)cc1C(=O)c1cc(Cl)cc(C#N)c1 [Compound 475] | < 10 nM | – | – |
| Cc1cc(C)cc(C(=O)c2cc(Cl)ccc2OCC(=O)Nc2ccc(S(N)(=O)=O)cc2C)c1 [Compound 478] | < 10 nM | – | – |
| Cc1cc(S(N)(=O)=O)ccc1NC(=O)COc1ccc(Cl)cc1C(=O)c1cc(F)cc(C#N)c1 [Compound 491] | < 10 nM | – | – |
| CCc1cc(C#N)cc(C(=O)c2cc(Cl)ccc2OCC(=O)Nc2ccc(S(N)(=O)=O)cc2C)c1 [Compound 498] | < 10 nM | – | – |
| Cc1cc(C#N)cc(C(=O)c2cc(Cl)ccc2OCC(=O)Nc2ccc(S(N)(=O)=O)nc2C)c1 [Compound 503] | < 10 nM | – | – |
| Cc1cc(C#N)cc(C(=O)c2cc(Cl)ccc2OCC(=O)Nc2ccc(S(N)(=O)=O)cc2C)c1 [Compound 564] | < 10 nM | – | – |
| Cc1cc(C#N)cc(C(=O)c2cc(Cl)ccc2OCC(=O)Nc2cnc(S(N)(=O)=O)cc2C)c1 [Compound 587] | < 10 nM | – | – |
| Cc1cc(C#N)cc(C(=O)c2cc(Cl)ccc2OCC(=O)Nc2ccc(OCCCN3CC=CC3)cc2C)c1 [Compound 593] | < 10 nM | – | – |
| Cc1cc(S(N)(=O)=O)ccc1NC(=O)COc1ccc(Cl)cc1C(=O)c1cccc(C#N)n1 [Compound 637] | < 10 nM | – | – |
